Results: patent publication US9849170B2, “Microneedle coating composition and microneedle device” (priority 2013, dated 2017)

Assay: Blending effect of lysine hydrochloride on stability (L9 orthogonal table)
Type: physicochemical
Conditions: 2.5% or 5.0% lysine hydrochloride blended; 50° C., 2 weeks; least-squares analysis, FIG. 4
Method: A Japanese encephalitis vaccine antigen application solution comprising 70% by mass of a mixture of arginine and an acid, where the blending ratio of each component (unit: % by mass) and the molar ratio of arginine and the acid are shown in Table 7, was applied onto microneedles, and the blending effect of the lysine hydrochloride was evaluated using an L9 orthogonal table. In Table 7, the numerical values in parentheses for each component denote the blending ratios (unit: % by mass) after removal of the volatile component.
A PBS solution of a Japanese encephalitis vaccine antigen was used as a bulk drug, this bulk drug was concentrated by ultrafiltration, and a predetermined amount of an additive was added to the concentrate, followed by mixing to obtain an application solution for microneedles. […] After drying, the microneedles were sealed in MoistCatch (trade name, Kyodo Printing Co., Ltd.) together with PharmaKeep (trade name, Mitsubishi Gas Chemical Company, Inc.), and the stability under each temperature condition was evaluated. […] For the specific activity level of each sample preserved at 50° C. for 2 weeks, the degree of influence by blending of lysine hydrochloride on the specific activity was analyzed by a least-squares method. […]

## Cl.NCCCC[C@H](N)C(=O)O [lysine hydrochloride]
  degree of influence on the specific activity: high
